pIC50: −log10 of the molar value.

The test system of this assay is HIVIIIB. Nature of the assay: HIV-1 replication in MT2 cell line with 30% human serum (RT activity in supernatant). Type of assay: cell-based. As to conditions: Human immunodeficiency virus 1, 120 h, MT2 cells, day 5 after infection, average if tested more than once, read-out: MT2 (HIVIIIB) with human serum IC50 range. How it is done:
HIV-1 Replication in MT2 cell line with and without 30% human serum: The cells are infected at a Multiciplicity of Infection (MOI) of 0.5 for 3 h and then washed twice with complete media to remove residual virus. Cells are then resuspended at 0.5×10^6/ml in complete medium (RPMI, 10% FBS, 1% sodium pyruvate), and seeded into 96-well plates (6.25×10^4/well). The cells are cultured in the presence or absence of various concentrations of test compounds in serial dilutions for 3 days at 37° C. The test compounds are serially diluted in complete medium supplemented or not with 30% human serum. After 3 days, 100 μL of cultured medium with cells are replaced with 120 μL of freshly diluted test compounds in complete medium containing or not 30% Human serum. The level of HIV-1 replication is determined at days 5 after infection by the presence of viral RT activity in harvested supernatant fluid. The IC50 values for the virus replication are determined by using GRAPHPAD PRISM software.
The IC50 of the compounds tested in accordance with the HIV replication activity assay MT2 (HIVIIIB) with or without human serum are represented in Table 6.
As for `C=C(C)[C@@H]1CC[C@]2(NC(=O)NC3CCC(F)(F)CC3)CC[C@]3(C)[C@H](CC[C@@H]4[C@@]5(C)CC[C@H](OC(=O)CC(C)(C)C(=O)O)C(C)(C)[C@@H]5CC[C@]43C)[C@@H]12` [Cpd 11-25, 3β-O-(3′,3′-Dimethylsuccinyl)-17β-(N′-4,4-difluorocyclohexyl-ureido)-28-norlup-20(29)-ene], the pIC50 (as a rule, the negative decadic logarithm of the IC50, by convention in mol/L) is above 6.70.
With `C=C(C)[C@@H]1CC[C@]2(NC(=O)Nc3nnc(C)o3)CC[C@]3(C)[C@H](CC[C@@H]4[C@@]5(C)CC[C@H](OC(=O)CC(C)(C)C(=O)O)C(C)(C)[C@@H]5CC[C@]43C)[C@@H]12` [Cpd 11-15, 3β-O-(3′,3′-Dimethylsuccinyl)-17β-[3-(5-methyl-[1,3,4]oxadiazol-2-yl)-ureido]-28-norlup-20(29)-ene], the pIC50 is above 6.70.
Consider `C=C(C)[C@@H]1CC[C@]2(N)CC[C@]3(C)[C@H](CC[C@@H]4[C@@]5(C)CC[C@H](OC(=O)[C@H]6CCC[C@@H](C(=O)O)C6)C(C)(C)[C@@H]5CC[C@]43C)[C@@H]12` [Cpd 9-3, 3β-O-(cis-Cyclohexane-3′-carboxylic acid-1′-carboxyl)-17β-amino-28-norlup-20(29)-ene], for which the pIC50 was above 6.70.
Then `C=C(C)[C@@H]1CC[C@]2(NC(=O)N3CCCCC3)CC[C@]3(C)[C@H](CC[C@@H]4[C@@]5(C)CC[C@H](OC(=O)CC(C)(C)C(=O)O)C(C)(C)[C@@H]5CC[C@]43C)[C@@H]12` [Cpd 11-11, 3β-O-(3′,3′-Dimethylsuccinyl)-17β-[(piperidine-1-carbonyl)-amino]-28-norlup-20(29)-ene], with above 6.70; and `C=C(C)[C@@H]1CC[C@]2(NC(=O)NC3CCCCC3)CC[C@]3(C)[C@H](CC[C@@H]4[C@@]5(C)CC[C@H](OC(=O)CC(C)(C)C(=O)O)C(C)(C)[C@@H]5CC[C@]43C)[C@@H]12` [Cpd 11-22, 3β-O-(3′,3′-Dimethylsuccinyl)-17β-(N′-cyclohexyl-ureido)-28-norlup-20(29)-ene], with above 6.70; and `C=C(C)[C@@H]1CC[C@]2(NC(=O)NCC(C)C)CC[C@]3(C)[C@H](CC[C@@H]4[C@@]5(C)CC[C@H](OC(=O)CC(C)(C)C(=O)O)C(C)(C)[C@@H]5CC[C@]43C)[C@@H]12` [Cpd 11-24, 3β-O-(3′,3′-Dimethylsuccinyl)-17β-(N′-isobutylureido)-28-norlup-20(29)-ene], with above 6.70.
The value for `C=C(C)[C@@H]1CC[C@]2(N(C)C)CC[C@]3(C)[C@H](CC[C@@H]4[C@@]5(C)CC[C@H](OC(=O)CC(C)(C)C(=O)O)C(C)(C)[C@@H]5CC[C@]43C)[C@@H]12` [Cpd 10-3, 3β-O-(3′,3′-Dimethylsuccinyl)-17β-dimethylamino-28-norlup-20(29)-ene] was above 6.70; that for `C=C(C)[C@@H]1CC[C@]2(NC(=O)c3nnc(C)o3)CC[C@]3(C)[C@H](CC[C@@H]4[C@@]5(C)CC[C@H](OC(=O)CC(C)(C)C(=O)O)C(C)(C)[C@@H]5CC[C@]43C)[C@@H]12` [Cpd 13-12, 3β-O-(3′,3′-Dimethylsuccinyl)-17β-[(5-methyl-[1,3,4]oxadiazole-2-carbonyl)-amino]-28-norlup-20(29)-ene] was above 6.70.
As for `C=C(C)[C@@H]1CC[C@]2(NC(=O)NCC3CCN(C)CC3)CC[C@]3(C)[C@H](CC[C@@H]4[C@@]5(C)CC[C@H](OC(=O)CC(C)(C)C(=O)O)C(C)(C)[C@@H]5CC[C@]43C)[C@@H]12` [Cpd 11-14, 3β-O-(3′,3′-Dimethylsuccinyl)-17β-[N′-(1-methyl-piperidin-4-ylmethyl)-ureido]-28-norlup-20(29)-ene], the pIC50 was above 6.70.
As to `C=C(C)[C@@H]1CC[C@]2(NC(=O)NC(C)C)CC[C@]3(C)[C@H](CC[C@@H]4[C@@]5(C)CC[C@H](OC(=O)CC(C)(C)C(=O)O)C(C)(C)[C@@H]5CC[C@]43C)[C@@H]12` [Cpd 11-16, 3β-O-(3′,3′-Dimethylsuccinyl)-17β-(N′-isopropyl-ureido)-28-norlup-20(29)-ene], the pIC50 was 6.00 to 6.70.

The record behind these values is patent US20110077251A1, “NOVEL 17 BETA LUPANE DERIVATIVES” (priority 2009, published 2011).
